Measurements reported in patent US20230212274A1, “METHOD FOR TREATING ASTHMA OR ALLERGIC DISEASE” (THE CHILDREN'S MEDICAL CENTER CORPORATION, priority 2020, published 2023).
“Also recorded” adds a separate entry of the source.

Key:
[1] = tested on: GDF15; assay: in vitro co-culture of GDF15-expressing Notch4high Treg cells with naive ILC2 cells; type: cell-based, mouse; settings: Treg cells from lungs of OVA+UFP-treated mice
Protocol: (§1) FIGS. 5A-5L show Notch4 promotes ILC2 activation via a GDF15-dependent mechanism (FIG. 5A) Flow cytometric analysis and frequencies of IL13^+ ILC2 (Lineage^- T1/ST2^+ cells) in mice of respective genotypes treated as indicated. (FIG. 5B and FIG. 5C) In vitro suppression assays of ILC2 cells isolated from OVA+UFP-treated Foxp3^YFPCre mice and incubated with Treg cells of mice of the respective genotypes treated as indicated. Additional treatment of in vitro cultures with isotype control or anti-Notch4 mAb is also indicated. (FIG. 5D) Flow cytometric analysis and frequencies of GDF15^+ lung Treg cells of mice of the respective genotypes treated as indicated. (FIG. 5E) Flow cytometric analysis and frequencies of IL-13 expression in cultures of naive ILC2 stimulated with IL-33, GDF15 or both. (FIG. 5F) IL-13 expression in naive ILC2 incubated with Notch4^high Treg cells from OVA+UFP treated mice without or with blocking GDF15 peptide. (FIG. 5G and FIG. 5H) AHR and IL13^+ ILC2 frequencies in Foxp3^YFPCre mice treated as indicated and challenged in the presence of carrier protein or GDF15 blocking peptide. (FIG. 5I to FIG. 5K) AHR and frequencies of the indicated lung cell types in sham or OVA+UFP sensitized and challenged Foxp3^YFPCre and Foxp3^YFPCreNotch4^Δ/Δ mice treated with recombinant GDF15, as indicated. Each symbol represents an independent sample. […]

[2] = tested on: allergic airway inflammation; assay: OVA+UFP allergic airway inflammation in mice, intra-tracheal instillation; type: in vivo, mouse
Protocol: FIGS. 5A-5L show Notch4 promotes ILC2 activation via a GDF15-dependent mechanism (FIG. 5A) Flow cytometric analysis and frequencies of IL13^+ ILC2 (Lineage^- T1/ST2^+ cells) in mice of respective genotypes treated as indicated. (FIG. 5B and FIG. 5C) In vitro suppression assays of ILC2 cells isolated from OVA+UFP-treated Foxp3^YFPCre mice and incubated with Treg cells of mice of the respective genotypes treated as indicated. Additional treatment of in vitro cultures with isotype control or anti-Notch4 mAb is also indicated. (FIG. 5D) Flow cytometric analysis and frequencies of GDF15^+ lung Treg cells of mice of the respective genotypes treated as indicated. (FIG. 5E) Flow cytometric analysis and frequencies of IL-13 expression in cultures of naive ILC2 stimulated with IL-33, GDF15 or both. (FIG. 5F) IL-13 expression in naive ILC2 incubated with Notch4^high Treg cells from OVA+UFP treated mice without or with blocking GDF15 peptide. (FIG. 5G and FIG. 5H) AHR and IL13^+ ILC2 frequencies in Foxp3^YFPCre mice treated as indicated and challenged in the presence of carrier protein or GDF15 blocking peptide. (FIG. 5I to FIG. 5K) AHR and frequencies of the indicated lung cell types in sham or OVA+UFP sensitized and challenged Foxp3^YFPCre and Foxp3^YFPCreNotch4^Δ/Δ mice treated with recombinant GDF15, as indicated. Each symbol represents an independent sample. Numbers in flow plots indicate percentages. Error bars indicate SEM. Statistical tests: two-way ANOVA with Sidak’s post hoc analysis (FIGS. 5A to 5D, 5G and 5I); One-way ANOVA with Dunnett’s post hoc analysis (FIGS. 5E and 5F, 5H and 5J). *P<0.05, ***P<0.001, ****P<0.0001. Data representative of two or three independent experiments. n=5-15 mice per group.
(FIG. 18A) Representative PAS-stained sections of lung tissues isolated from Foxp3^YFPCre and Foxp3^YFPCreNotch4^Δ/Δ with either PBS or OVA+UFP, the latter either alone or supplemented with GDF15, as indicated (200X magnification). (FIG. 18B) Inflammation score for the respective mouse groups. (FIG. 18C) Frequencies of ILC in the lungs of respective mouse groups. (FIG. 18D) IL-4, IL-13, and IL-17 expression in lung Foxp3^-CD4^+ Teff cells in the respective groups. (FIG. 18E) IL-4, IL-13, and IL-17 expression in lung Foxp3^+CD4^+ Treg cells in the respective groups. Error bars indicate SEM. Statistical tests. One-way ANOVA with Dunnett’s post hoc analysis. (FIGS. 18A-18E) **P<0.01, ***P<0.001, ****P<0.0001. Data representative of two or three independent experiments. n=10 mice per group.
(FIG. 19A) Representative PAS-stained sections of lung tissues isolated from Foxp3^YFPCre, treated with GDF15 blocking peptide segregated into PBS, or OVA+UFP-treated groups (200X magnification). (FIG. 19B) Inflammation score for the respective mouse groups. […]

[3] = tested on: Notch4 expression on differentiating iTreg cells; assay: in vitro iTreg cell differentiation: OT-II T cells co-cultured with OVA323-339- or OVA323-339+UFP-pulsed alveolar macrophages, Notch4 by flow cytometry; type: cell-based, mouse; settings: for Notch4 expression on differentiating iTreg cells: cytokine added to co-cultures with OVA323-339 / OVA323-339+UFP-pulsed alveolar macrophages
From the text: (§2) FIGS. 1A-1H show Notch4 expression on lung Treg cells in allergic airway inflammation. (FIG. 1A) RT-PCR of Notchl-4 transcripts in lung Treg and Teff cells isolated from PBS, OVA and OVA+UFP mouse groups. (FIG. 1B and FIG. 1C) Flow cytometric analysis, cell frequencies and mean fluorescence intensity (MFI) of Notch4 expression on lung Treg and Teff cells in the respective mouse groups. (FIG. 1D and FIG. 1E) Flow cytometric analysis and cell frequencies of Notch4 expression on OT-II^+CD4^+Foxp3^+ T cells generated in co-cultures with sham or OVA323-339+UFP-pulsed alveolar macrophages without or with IL-6 or anti-IL-6R mAb. (FIG. 1F) Flow cytometric analysis and cell frequencies of Notch4 expression in Helios^high and Helios^low lung Treg cells isolated from the respective mouse groups. (FIG. 1G) Flow cytometric analysis and cell frequencies of Notch4 expression on in vitro differentiated Treg cells derived from naive CD4^+ T cells isolated from Foxp3^YFPCre, Foxp3^YFPCreIl6r^Δ/Δ and Foxp3^YFPCreStat3^Δ/Δ mice and either untreated or treated with IL-6. (FIG. 1H) ChIP assays for the binding of STAT3 and control (IgG) antibodies to the Notch4 promoter in lung Treg cells of OVA+UFP-treated Foxp3^YFPCre, and Foxp3^YFPCreStat3^Δ/Δ mice. Each symbol represents one mouse. Numbers in flow plots indicate percentages. Error bars indicate SEM. Statistical tests for all panels: One-way ANOVA with Dunnett’s post hoc analysis. *P<0.05, **P<0.01, ***P<0.001, ****P<0.0001. Data representative of two or three independent experiments. (FIGS. 1A, 1D to 1F) n=5, (FIGS. 1B and 1C) n=15 and (FIGS. 1G and 1H) n=6 replicates per group.
FIGS. 7A-7E show Notch4 expression on lung Treg cells in allergic airway inflammation. (FIGS. 7A to 7C) Flow cytometric analysis, cell frequencies and mean fluorescence intensity (MFI) of Notch1, 2 and 3 expression on lung Treg and Teff cells in the respective mouse groups. (FIG. 7D) Cell frequencies of Notch4 expression on OT-II^+CD4^+Foxp3^+ T cells generated in co-cultures with sham or OVA323-339+UFP-pulsed alveolar macrophages without or with IL-1B, IL-25, IL-33, TSLP or TNFa. (FIG. 7E) ChIP assays for the binding of STAT3 and control (IgG) antibodies to the Notch1, 2 and 3 promoters in lung Treg cells of OVA+UFP-treated Foxp3^YFPCre, and Foxp3^YFPCreStat3^Δ/Δ mice. Each symbol represents one mouse. Numbers in flow plots indicate percentages. Error bars indicate SEM. Statistical tests for all panels: One-way ANOVA with Dunnett’s post hoc analysis. *P<0.05, **P<0.01, ***P<0.001, ****P<0.0001. Data representative of two or three independent experiments. N = 5-10 replicas per group.
To examine signals driving the induction of Notch4 on iTreg cells, the inventors employed an in vitro iTreg cell differentiation system in which OT-II T cell receptor (TCR) transgenic T cells, specific for the OVA323-339 peptide, were incubated with isolated primary alveolar macrophages (AM). […] Chromatin immunoprecipitation assays confirmed IL-6-dependent inducible binding of STAT3 to the Notch4 promoter in Treg cells, but not to those of Notch1, Notch2 or Notch3, which was abrogated by Stat3 deletion (FIG. 1I; […]).

[4] = tested on: Notch4 on differentiating Treg cells; assay: antigen presenting cell-free in vitro iTreg cell differentiation (anti-CD3+anti-CD28 mAbs, TGF-β1); type: cell-based, mouse; settings: naive T cells
From the text: as §2, with “Statistical tests for all panels: One-way ANOVA with Dunnett’s post hoc analysis. *P<0.05, **P<0.01, ***P<0.001, ****P<0.0001. Data representative of two or three independent experiments. (FIGS. 1A, 1D to 1F) n=5, (FIGS. 1B and 1C) n=15 and (FIGS. 1G and 1H) n=6 replicates per group.” left out

[5] = tested on: Notch4 expression on Treg cells; assay: Notch4 expression on peripheral blood Treg cells of a severe asthmatic subject before and after therapy; type: in vivo, human; settings: post therapy
From the text: In contrast, Notch4 expression on circulating CD4^+ Teff cells was low and remained relatively flat as a function of asthma severity (FIG. 6B). Also, expression of Notchl-3 on Treg and Teff cells was not increased in asthmatics as compared to control subjects (FIGS. 17A-17I). Notch4 expression was restricted to the Helios^low iTreg cell subpopulation (FIG. 6C). […] Also, there were increased concentrations of GDF 15 in the sera of moderate and severe asthmatics that positively correlated with circulating Treg cell Notch4 expression (FIG. 6F).

[6] = tested on: IL-13 expression in naive ILC2; assay: in vitro cultures of ILC2 derived from naive mice stimulated with GDF15, IL-33 or both; type: cell-based, mouse
Protocol: as §1

[7] = OVA+UFP treated Foxp3YFPCreNotch4Δ/Δ mice, intra-tracheal instillation

## GDF15 blocking peptide: GDF15 inhibitory peptide, KTSLHRLKPDTVPAPC (SEQ ID NO: 1; amino acids 258-273 of the full length GDF15 gene product) (listed as Homo sapiens)
[1]
  upregulation of IL13 expression in naive ILC2 by Notch4high Treg cells: reversed
[2]; OVA+UFP treated Foxp3YFPCre mice, instillation
  AHR, tissue inflammation, IL-4 and IL-13 expression in Teff cells (allergic airway inflammation): downregulated the aforementioned changes; also recorded: attenuates allergic airway inflammation

## IL-1β: cytokine added to cell cultures
[3]
  Notch4 expression on differentiating iTreg cells: not

## IL-6: interleukin-6 cytokine added to cell cultures
[3]
  Notch4 expression on differentiating iTreg cells: super-induction of Notch4 expression
[4]
  Notch4 on differentiating Treg cells: induced Notch4 on differentiating Treg cells

## TNFa
[3]
  Notch4 expression on differentiating iTreg cells: not

## TSLP: cytokine added to cell cultures
[3]
  Notch4 expression on differentiating iTreg cells: not

## Tocilizumab: anti-IL-6R mAb (anti-IL-6Ra chain mAb)
[5]
  Notch4 expression on patient Treg cells: decreased Notch4 expression
[5]; listed as tocilizumab
  Notch4 expression on patient Treg cells: substantially attenuated Notch4 expression

B1: IL-33: cytokine added to cell cultures (protein, UniProt O95760 1-270, looked up)
Interleukin-33: MKPKMKYSTNKISTAKWKNTASKALCFKLGKSQQKAKEVCPMYFMKLRSGLMIKKEACYFRRETTKRPSLKTGRKHKRHLVLAACQQQSTVECFAFGISGVQKYTRALHDSSITGISPITEYLASLSTYNDQSITFALEDESYEIYVEDLKKDEKKDKVLLSYYESQHPSNESGDGVDGKMLMVTLSPTKDFWLHANNKEHSVELHKCEKPLPDQAFFVLHNMHSNCVSFECKTDPGVFIGVKDNHLALIKVDSSENLCTENILFKLSET
[3]; added together with IL-6
  Notch4 expression induced by IL-6: further upregulated the expression of Notch4
[3]
  Notch4 expression on differentiating iTreg cells: did not induce Notch4 on its own

B2: IL-25: cytokine added to cell cultures (protein, UniProt Q9H293 33-177, looked up)
Interleukin-25: YSHWPSCCPSKGQDTSEELLRWSTVPVPPLEPARPNRHPESCRASEDGPLNSRAISPWRYELDRDLNRLPQDLYHARCLCPHCVSLQTGSHMDPRGNSELLYHNQTVFYRRPCHGEKGTHKGYCLERRLYRVSLACVCVRPRVMG
[3]
  Notch4 expression on differentiating iTreg cells: not

B3: recombinant GDF15: recombinant cytokine growth and differentiation factor 15, secreted ligand of the TGF-beta superfamily (protein, UniProt Q99988 195-308, looked up)
Growth/differentiation factor …: ARARNGDHCPLGPGRCCRLHTVRASLEDLGWADWVLSPREVQVTMCIGACPSQFRAANMHAQIKTSLHRLKPDTVPAPCCVPASYNPMVLIQKTDTGVSLQTYDDLLAKDCHCI
[2]; [7]
  AHR and tissue inflammation: upregulated the AHR and tissue inflammation
  IL-4 and IL-13 expression in Teff cells: increasing IL-4 and IL-13 expression in Teff cells
[2]; OVA+UFP treated Foxp3YFPCreNotch4Δ/Δ mice, intra-tracheal instillation, listed as GDF15
  AHR and tissue inflammation: restores airway inflammation
[6]; alone
  IL-13 expression in ILC2 derived from naive mice: upregulated IL-13 expression alone
[6]; in combination with IL-33
  IL-13 expression in ILC2 derived from naive mice: especially in synergy with IL-33
